Source: patent publication US10316348B2, “Diagnostic system and process for rapid bacterial infection diagnosis” (priority 2014, dated 2019)
Several values for one entry are separate records, joined by “and”; a condition that tells them apart may be missing. Equal entries are not always repeated.

Assays:
[1] = tested on: P. aeruginosa strain PA14 biofilms; assay: Square wave voltammetry of pyocyanin produced by PA14 biofilms in a microfluidic growth chamber during antibiotic exposure; format: cell-based, Pseudomonas aeruginosa
Method: P. aeruginosa strain PA14 and m-cherry Escherichia coli strain K12 were used for all antibiotic tests performed. Trypticase soy broth (BD 211768) was used as the nutrient source for all bacteria grown in these tests. Colistin sulfate (Adipogen AG-CN2-0065-G001) was dissolved in trypticase soy broth (TSB) at 1 g/L and used as a stock solution. When not in use, the stock solution was stored at 4° C. Polydimethylsiloxane (Ellsworth Adhesives 184 Sil. Elast. Kit 0.5 kg) was used to prepare all microfluidic devices. Disposable three electrode cells (Zensor TE100) were used for all measurements in this study. The electrochemical cells consist of carbon working and counter electrodes with a Ag/AgCl paste reference electrode. Tubing and luer lock fittings for microfluidic connections were purchased from Amazon Supply (B001GMWZM) and Value Plastic (MTLL230). To prevent bacteria from leaving the microfluidic growth chambers, Minisart RC4 0.2 micron regenerated cellulose luer lock syringe filters (17821K) were attached to the inlets and outlets of the devices via 19 gauge luer lock syringes (NE192PL-25). A syringe pump (Harvard Apparatus Fusion 200 211097) was used to control the flow rate of growth media and antibiotic through the microfluidic chamber. Electrochemical measurements were made using a multipotentiostat (CHI 1040C A2728).
Polydimethylsiloxane (PDMS) wells were fabricated from 9 mm×9 mm tape molds made on glass slides (3M Scotch Tape, tape thickness ≈50 μm) using a standard method. […] Inlets and outlets in the wells were drilled and the resulting microfluidic devices were fabricated by irreversibly bonding PDMS to the disposable electrochemical cells using air plasma (Anatech SP-100, 5-7 s at 100 W). The microfluidic channels were filled with trypticase soy broth (TSB) at a flow rate of 10 μL/min. To facilitate complete filling of the chamber (removal of air bubbles), an empty syringe was attached to the outlet. By pulling and releasing vacuum on the outlet, TSB was pulled through the chamber displacing any air bubbles.
For antibiotic testing, cultures of PA14 and E. coli were grown over night in 3 mL of TSB (concentration approximately […]). After overnight growth, samples were centrifuged for 3 min at 10,000 rpm. The supernatant was discarded and the cultures were reconstituted in 3 mL of fresh TSB. After removing the inlet syringe filter, approximately 24 μL of reconstituted cell culture was loaded into the growth chamber at a flow rate of 10 μL/min. […] After overnight growth, flow at 0.1 μL/min was initiated with either TSB or colistin sulfate in TSB and the electrochemical response was monitored. […]

PA14 [2] = assay: Growth of liquid PA14 cultures plated on cetrimide agar plates containing colistin sulfate; format: cell-based, Pseudomonas aeruginosa
Method: FIG. 21 illustrates images of PA14 colonies after 20 hours of growth at 37° C. on cetrimide agar plates mixed with different concentrations of colistin sulfate.
Regarding FIG. 21, liquid cultures of PA14, grown over night in 3 mL of TSB, were plated directly onto cetrimide agar plates containing 0, 4, and 100 mg/L of colistin sulfate. These plates were incubated overnight at 37° C. The plates were then inspected for bacterial growth (FIG. 21).

PA14 [3] = assay: Regrowth on TSB agar plates of cells taken from PDMS chambers after colistin sulfate exposure; format: cell-based, Pseudomonas aeruginosa; details: TSB plate
Method: FIG. 12 illustrates PA14 exposed to 100 mg/L and 4 mg/L colistin sulfate for 20 hours within PDMS chambers then spotted onto TSB plates. Photographs of a plate after incubation at 37° C. for A) 4.3 h, B) 6.5 h, and C) 74.3 h (removed from the incubator after 24 h to avoid drying and grown at room temperature (≈23° C.)). Arrows highlight the locations of the first observed PA14 colonies. A vertical line divides the areas on the plate where PA14 exposed to 100 mg/L (left) and 4 mg/L (right) colistin sulfate were spotted.
FIG. 22 illustrates PA14 streaked onto TSB after exposure to 100 mg/L and 4 mg/L colistin for 20 hours within PDMS flow chambers. Photographs show the plate after A) 4.33 h, B) 6.5 h, and C) 74.3 h of incubation. The plate was incubated at 37° C. for the first 24 hours, then grown at room temperature for the remaining time to prevent the agar from drying out.
The qualitative results of the live cell stain are consistent with the culture plate experiments. The live cell concentration in biofilms exposed to 100 mg/L colistin sulfate (FIG. 11B), however, is higher than expected when compared to the reduced rate of colony formation on agar plates (FIG. 12).
Regarding FIG. 22, after exposure to colistin sulpahte at 4 and 100 mg/L flowing at 100 nL/min, the PDMS chambers were peeled from the disposable electrodes. […] Samples were incubated at 37° C., and monitored for growth. […]

P. aeruginosa = details: literature value, cited from earlier work
PA14 cells = assay: Live cell counts (LIVE/DEAD stain, haemocytometer) of biofilm removed from the device after antibiotic exposure; format: cell-based, Pseudomonas aeruginosa; details: PA14 biofilm exposed to 100 mg/L colistin sulfate, compared to 0 and 4 mg/L
Method: Cell viability after exposure to colistin sulfate was assessed using a LIVE/DEAD staining kit (EMD Chemicals Millipore 50-231-0606). Stains were prepared per manufacturer's operating procedure. After staining, 10 μL of sample was injected into an INCYTO C-chip disposable hemocytometer (DHC-N01). Cells were imaged using a fluorescence microscope, and the number of PA14 cells that were alive after exposure was determined using IMAGE J (ImageJ, U.S. National Institutes of Health, Bethesda, Md., USA, http://imagej.nih.gov/ij/).
The number of living cells measured after exposure to three different concentrations of colistin sulfate were compared (FIG. 11B). After the biofilm was exposed to antibiotic in the device, the PDMS chambers were peeled off and 100 μL of fresh TSB was spotted on the biofilm and pipetted vigorously to remove material from the surface of the electrode. Removed samples were used to measure live cell counts, performed with Millipore 3P Live/Dead Stain, using a haemocytometer. […] A concentration of approximately 4×10^5 live cells/mL was measured in the biofilms not exposed to colistin sulfate. […] A statistically significant reduction in the number of live PA14 cells was measured for samples exposed to 100 mg/L colistin sulfate compared to cells exposed to 0 and 4 mg/L colistin sulfate. […]

Row | Compound | effect on PYO production (SWV response) ([1]; PA14 exposed to 100 mg/L ampicillin in TSB under flow) | bacterial growth on plate after overnight incubation at 37° C. (PA14 [2]; cetrimide agar containing 4 mg/L colistin sulfate) | bacterial growth on plate after overnight incubation at 37° C. (PA14 [2]; cetrimide agar containing 100 mg/L colistin sulfate) | incubation time after which growth (visible colonies) was observed (PA14 [3]; cells exposed to 4 mg/L colistin sulfate for 20 hours in chambers, 37° C.) | growth after 6.5 h of incubation (PA14 [3]; cells exposed to 100 mg/L colistin sulfate for 20 hours in chambers) | average response (peak current, PYO production) compared to biofilms exposed to only TSB ([1]; PA14 biofilm exposed to 4 mg/L colistin sulfate, ANOVA) | average percent decrease in the maximum peak current at the end of testing ([1]; PA14 biofilm exposed to 100 mg/L colistin sulfate in TSB, flow 100 nL/min, compared to control cells) | average peak current compared against the control (ANOVA) ([1]; PA14 exposed to 16 and 100 mg/L colistin sulfate, P<0.05) | reported MIC (High MIC) (P. aeruginosa; higher MIC) | reported MIC (low MIC) (P. aeruginosa; lower MIC) | reduction in the number of living cells (PA14 cells)
1 | CC1(C)S[C@@H]2[C@H](NC(=O)[C@H](N)c3ccccc3)C(=O)N2[C@H]1C(=O)O [ampicillin] | no effect on PYO production |  |  |  |  |  |  |  |  |  | 
2 | colistin sulfate |  | showed growth | showed no colony formation | 4.3 h and 4 h | No growth was observed | no significant difference | ~82% | significantly lower | 16 µg/mL | 4 µg/mL | ~2 ×
